Here are results for 15 molecules from PubChem BioAssay (NCI).

Among the test systems are K-562 leukemia; SK-MEL-28 melanoma; OVCAR-4 ovarian; HCC-2998 colon; A549 NSCLC; TK-10 renal; A498 renal; PC-3 prostate; DU-145 prostate.
Experiment in all cases: DTP human tumour cell line panel, 48 h

The structures appear in SMILES notation.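 Grown in 96-well plates, cells were treated for 48 hours with each compound at five concentrations. Insufficient inhibition: endpoint recorded as highest concentration tested. GI50 = concentration required for 50% inhibition of growth. TGI: concentration producing complete growth inhibition.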

Regarding `C=C1C2CC(OC(C)=O)C3(C)C(c4ccoc4)OC(=O)[C@@H](O)[C@]13OC1C[C@H](OC(C)=O)C(C)(C)[C@H](C(O)C(=O)OC)[C@]12C` (stereo partly drawn), the TGI in the assay on K-562 leukemia, in the assay with SK-MEL-28 melanoma, with OVCAR-4 ovarian, in the assay on HCC-2998 colon, with A549 NSCLC and in the assay with TK-10 renal was over 100 µM throughout. For the same molecule, the concentration for total growth inhibition (TGI) (in general, the concentration at which net growth stops) in the assay on A498 renal was over 100 µM.

For `CC1=NC(C)=C(/C(C)=N/NC(=O)c2ccccc2O)C(C)/C1=C(/C)NNC(=O)c1ccccc1O` (stereo not drawn), the total growth inhibition concentration (TGI) is 35.3 µM with K-562 leukemia; over 100 µM in the assay on SK-MEL-28 melanoma; 48.4 µM with OVCAR-4 ovarian; 96.5 µM in the assay on A549 NSCLC; 98.8 µM with TK-10 renal; 99.6 µM in the assay on A498 renal.

With `CC(=O)O[C@H]1CC[C@@]2(C)C(=CC[C@H]3C(CC#N)[C@@](C)(C#N)CCC32)C1` (stereo partly drawn), the TGI with K-562 leukemia, in the assay with SK-MEL-28 melanoma, with OVCAR-4 ovarian, in the assay on HCC-2998 colon, in the assay on A549 NSCLC and in the assay with TK-10 renal was over 100 µM in each case. In addition, the TGI in the assay with A498 renal was over 100 µM.

For `CSc1nc2c(nc(N)n2C2OC(CO)C(O)C(O)C2O)c(=O)[nH]1` (stereo not drawn), the TGI in the assay on K-562 leukemia, in the assay on SK-MEL-28 melanoma, with OVCAR-4 ovarian, in the assay on HCC-2998 colon, in the assay with A549 NSCLC and in the assay with TK-10 renal was over 100 µM in each case. In the assay on A498 renal, this molecule had a TGI of over 100 µM.

In the case of `COc1nc(NC2OC(COC(C)=O)C(OC(C)=O)C(OC(C)=O)C2OC(C)=O)c(N=C(C)C(C)=O)c(=O)n1C` (stereo not drawn), the concentration for total growth inhibition (TGI) in the assay on K-562 leukemia, in the assay on OVCAR-4 ovarian, with HCC-2998 colon, in the assay on A549 NSCLC, with TK-10 renal and with A498 renal was over 100 µM throughout.

With `COc1ccc(/C=C/c2cc(OC)c(OC)c(OC)c2)cc1OC`, the concentration for total growth inhibition (TGI) in the assay with K-562 leukemia, with SK-MEL-28 melanoma, in the assay with OVCAR-4 ovarian, with HCC-2998 colon, in the assay on A549 NSCLC and in the assay on TK-10 renal was over 100 µM each time. The same molecule had a total growth inhibition concentration (TGI) in the assay with A498 renal of over 100 µM.

Take `CC(=O)OC1CC2C(C)(C)C(=O)C=C[C@]2(C)C2CCC3(C)C(c4ccoc4)C(=O)C4OC43[C@]12C` (stereo partly drawn): the TGI was 32.6 µM with K-562 leukemia; 32 µM with SK-MEL-28 melanoma; 58.9 µM in the assay with OVCAR-4 ovarian; 30.7 µM in the assay with HCC-2998 colon; 46 µM in the assay with A549 NSCLC; over 100 µM with TK-10 renal. In the assay with A498 renal, this molecule gave a TGI of 42.5 µM.

Turning to `C/C(COc1ccc2oc(-c3ccccc3)cc(=O)c2c1)=N\O`, the GI50 (in general, the concentration that inhibits growth by half) was 70.7 µM in the assay on K-562 leukemia; 23.1 µM with SK-MEL-28 melanoma; 26.6 µM with PC-3 prostate; over 100 µM in the assay with OVCAR-4 ovarian; 48.5 µM in the assay on DU-145 prostate; 19.5 µM with HCC-2998 colon. The GI50 with A549 NSCLC is 45.4 µM; in the assay with TK-10 renal, 22.6 µM. The total growth inhibition concentration (TGI) was over 100 µM with K-562 leukemia; over 100 µM in the assay with SK-MEL-28 melanoma; 70.5 µM in the assay with PC-3 prostate; over 100 µM with OVCAR-4 ovarian; over 100 µM in the assay on DU-145 prostate; over 100 µM with HCC-2998 colon. For the same molecule, the TGI with A549 NSCLC is over 100 µM; in the assay on TK-10 renal, 94.7 µM.

`C/C(=N\NC(=O)c1ccccc1O)c1c(O)cc(C)oc1=O`: the TGI in the assay on K-562 leukemia, with SK-MEL-28 melanoma, in the assay on OVCAR-4 ovarian, with HCC-2998 colon, with A549 NSCLC and in the assay with TK-10 renal was over 100 µM each time. The total growth inhibition concentration (TGI) with A498 renal was over 100 µM.

Take `O=[N+]([O-])c1cc(I)cc(/C=N/NS(=O)(=O)c2ccc(F)cc2)c1O`: the concentration for total growth inhibition (TGI) in the assay on K-562 leukemia was 52.7 µM; in the assay with SK-MEL-28 melanoma it was 81.6 µM; in the assay on OVCAR-4 ovarian it was over 100 µM; with HCC-2998 colon it was over 100 µM; with A549 NSCLC, over 100 µM; with TK-10 renal, 77.7 µM. The TGI in the assay on A498 renal turned out to be 91.6 µM.

As to `FC(F)(F)c1cccc(Oc2ccc(Nc3ncnc4ccc(OCCCN5CCOCC5)cc34)cc2Cl)c1`, the GI50 was 1.5 µM with K-562 leukemia; 1.64 µM in the assay on SK-MEL-28 melanoma; 2.4 µM in the assay on PC-3 prostate; 2.52 µM with OVCAR-4 ovarian; 2.42 µM with DU-145 prostate; 1.72 µM in the assay with HCC-2998 colon. The GI50 in the assay with A549 NSCLC was 1.88 µM; with TK-10 renal, 2.02 µM; in the assay with A498 renal, 2.37 µM. Also, the TGI in the assay with K-562 leukemia came to 5.47 µM; with SK-MEL-28 melanoma, 3.01 µM; in the assay on PC-3 prostate it was 8.58 µM; in the assay on OVCAR-4 ovarian, 12.7 µM; in the assay on DU-145 prostate, 10.3 µM; in the assay on HCC-2998 colon, 3.34 µM. Moreover, the total growth inhibition concentration (TGI) in the assay with A549 NSCLC worked out at 5.64 µM; in the assay with TK-10 renal it was 9.74 µM; in the assay on A498 renal, 12.8 µM.

As for `Cn1nc(-c2ccccc2)c2c(/C=C/c3ccc(F)cc3)onc2c1=O`, the TGI with K-562 leukemia, in the assay with SK-MEL-28 melanoma, in the assay with A549 NSCLC and with TK-10 renal was over 100 µM throughout.

For the molecule `CCCCCCCCCCNC(=S)OC`, the TGI with K-562 leukemia, in the assay on SK-MEL-28 melanoma, in the assay on OVCAR-4 ovarian, with HCC-2998 colon, in the assay with A549 NSCLC and with TK-10 renal was over 100 µM each time. The total growth inhibition concentration (TGI) with A498 renal was over 100 µM.

Regarding `Cn1c(=O)nc2n(-c3ccc(F)c(F)c3)c3ccccc3nc-2c1=O`, the TGI was 41.2 µM in the assay with K-562 leukemia; 21.1 µM in the assay with OVCAR-4 ovarian; 23.7 µM in the assay on HCC-2998 colon; 60.5 µM in the assay with A549 NSCLC; over 100 µM in the assay on TK-10 renal; over 100 µM in the assay with A498 renal.

Regarding `CC(=O)N(N=O)c1ccc(N(N=O)C(C)=O)cc1`, the concentration for total growth inhibition (TGI) in the assay with K-562 leukemia, in the assay with SK-MEL-28 melanoma, with OVCAR-4 ovarian, in the assay on HCC-2998 colon, in the assay on A549 NSCLC and with A498 renal was over 100 µM throughout.
